Reference: PubChem BioAssay AID1963875 (Molecular Pharmacology Branch, DTP, NCI, 2024)
Where “and” joins values, the source holds several entries; their conditions need not be identical. Equal entries are not always repeated.

Tested on: KRAS-mutant PDC complex spheroid viability
Experiment: Anticancer human tumor 186277-243-T-J2-PDC patient-derived colon adenocarcinoma cell line growth inhibition [KRAS2]
Conditions: for viability, T/C: stronger effect = lower value
From the text: Multicellular complex tumor spheroid response to RAS pathway inhibitors in combination with a targeted agents in patient-derived cell lines with oncogenic KRAS variants from multiple cancer types
A high-throughput screen of multi-cell type tumor spheroids was designed to identify active combinations of targeted small molecules and KRAS pathway inhibitors. Complex spheroids include a stromal component modeled by human endothelial cells (HUVEC) and fibroblasts modeled by human mesenchymal stem cells (MSCs). The concentration ranges selected for each drug and investigational agent were based upon clinically achievable concentrations if the clinical Cmax of the agent was known.
Compounds. The drugs and investigational agents: BI-3406 (NSC825286), BAY-293 (NSC824723), batoprotafib (TNO155; NSC825523), sotorasib (AMG 510; NSC818433), MRTX1257 (NSC819558), elimusertib (BAY 1895344; NSC800525), molibresib (GSK525762; NSC774829), temuterkib (LY3214996; NSC803410), venetoclax (NSC766270), alisertib (NSC759677), olaparib (NSC753686), talazoparib (NSC767125), erdafitinib (NSC781556), ipatasertib (NSC767898), cabozantinib (NSC761068), nintedanib (NSC756659), abemaciclib (NSC768073), docetaxel (NSC628503), trametinib (NSC758246), and sapanisertib (NSC764658) were obtained from the National Cancer Institute (NCI) Developmental Therapeutics Program Chemical Repository. The FDA-approved anticancer drug set is available from the Developmental Therapeutics Program. […] The stock solutions were prepared in dimethyl sulfoxide (DMSO, Sigma-Aldrich, St. Louis, MO, cat. D2650) at 800-fold the tested concentration and stored at -70 degrees C prior to their use. All drugs and investigational agents were tested over a range starting from a high concentration at or near the clinical Cmax and decreasing in half-log increments. If the clinical Cmax for an agent had not been determined, the highest concentration tested was 10 microM.
Cell Culture. All cells were maintained in an incubator at 37 degrees C and 5% CO2 with 95% humidity. The PDC lines were cultured according to standard operating procedures established by the NCI PDMR (https://pdmr.cancer.gov/sops/default.htm). Briefly, all PDCs were thawed and cultured in Matrigel-coated flasks prepared with a working solution of 1X Ham's F-12 nutrient mix, without supplementation (Invitrogen, Waltham, MA, cat. 11765054), 100 U/mL penicillin-streptomycin (Invitrogen, cat. 15140122), and 2.5% Matrigel (Corning Inc., Corning, NY, cat. 354248) for the first three passages. All PDCs were cultured in complete DMEM/F-12 media containing advanced DMEM/F-12 (Invitrogen, cat. 12634028), 4.9% defined fetal bovine serum, heat inactivated (HyClone Laboratories Inc., Logan, UT, cat. SH30070.03HI), 389 ng/mL hydrocortisone (Sigma-Aldrich, cat. H4001), 9.7 ng/mL human EGF recombinant protein (Invitrogen, cat. PHG0313), 23.4 microg/mL adenine (Sigma-Aldrich, cat. A2786), 97.3 U/mL penicillin-streptomycin (Invitrogen, cat. 15140122), 1.9 mM L-glutamine (Invitrogen, cat. 25030081), and 9.7 microM Y-27632 dihydrochloride (Tocris Bioscience, Bristol, United Kingdom, cat. 1254). The PDCs were cultured in complete DMEM/F12 media without 9.7 microM Y-27632 dihydrochloride for at least two passages prior to the screen. The established cell line HOP-62 was cultured in RPMI 1640 medium, HEPES (Invitrogen, cat. 22400105) with 10% defined fetal bovine serum (HyClone Laboratories Inc., cat. SH30070.03) and 2 mM L-glutamine (Invitrogen, cat. 25030081). The pooled donor HUVEC were cultured in endothelial cell growth medium 2 (PromoCell, Heidelberg, Germany, cat. C-22011) and the hMSC were cultured in mesenchymal stem cell growth medium 2 (PromoCell, cat. C-28009). For all experiments, HUVEC and hMSC were used at passages </=5, while the malignant cell lines were used at passages </=15. […]

[1] = compound alone, run of 07/12/2021
[2] = compound alone, run of 07/19/2021
[3] = compound alone, run of 07/26/2021
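Throughout, for viability, T/C: viability read after seven days of compound exposure; 100% = DMSO vehicle-treated spheroids so lower means less viable.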

With `C=CC(=O)N1CCN(c2nc(=O)n(-c3c(C)ccnc3C(C)C)c3nc(-c4c(O)cccc4F)c(F)cc23)C(C)C1` (stereo not drawn) the viability, T/C (compound 0.1 µM) was 98.1% [middle of 17 runs], the viability, T/C (compound 1 µM) was 96.4% [middle of 17 runs] and the IC50 [1] was > 10 µM and 9.92 µM and 2.89 µM. For the same compound, the IC50 [2] was > 10 µM and 8.52 µM and the IC50 [3] was over 10 µM.

In the case of `C=CC(=O)N1CCN(c2nc(OCC3CCCN3C)nc3c2CCN(c2cccc4cccc(C)c24)C3)CC1CC#N` (stereo not drawn), the viability, T/C (compound 0.0316 µM) is reported as 98.9% [middle of 16 runs], the IC50 [2] is reported as 1.82 µM [middle of 4 runs] and the IC50 [3] is reported as 1.75 µM [middle of 5 runs].

In the case of `CC(=O)Nc1cccc(-n2c(=O)n(C3CC3)c(=O)c3c(Nc4ccc(I)cc4F)n(C)c(=O)c(C)c32)c1`, the viability, T/C (compound 0.0001 µM) is reported as 102% [middle of 5 runs], the viability, T/C (compound 0.001 µM) is reported as 21.2% [middle of 5 runs] and the viability, T/C (compound 0.00316 µM) is reported as 9.7% [middle of 5 runs]. The viability, T/C (compound 0.01 µM) was 4.01% [middle of 5 runs], the viability, T/C (compound 0.0316 µM) was 1.43% [middle of 5 runs] and the IC50 (curve of compound) was 0.622 nM [middle of 5 runs].

With `CC(=O)OC12COC1CC(O)C1(C)C(=O)C(O)C3=C(C)C(OC(=O)C(O)C(NC(=O)OC(C)(C)C)c4ccccc4)CC(O)(C(OC(=O)c4ccccc4)C21)C3(C)C` (stereo not drawn) the viability, T/C (compound 0.01 µM) was 5.72% [middle of 5 runs], the viability, T/C (compound 0.0316 µM) was 3.66% [middle of 5 runs] and the viability, T/C (compound 0.1 µM) was 3.28% [middle of 5 runs]. The viability, T/C (compound 0.316 µM) was 3.46% [middle of 4 runs], the viability, T/C (compound 1 µM) was 3.38% [middle of 5 runs] and the viability, T/C (compound 3.16 µM) was 3.74% [middle of 5 runs]. The IC50 (curve of compound) was under 0.01 µM.

For `CC(C)NCC(C(=O)N1CCN(c2ncnc3c2C(C)CC3O)CC1)c1ccc(Cl)cc1` (stereo not drawn), the viability, T/C (compound 0.0316 µM) was 89.6% [middle of 5 runs], the viability, T/C (compound 0.1 µM) was 89.8% [middle of 5 runs] and the viability, T/C (compound 0.316 µM) was 73% [middle of 5 runs]. For the same compound, the viability, T/C (compound 1 µM) was 39.9% and 40.4% (2×) and 33.2%, the viability, T/C (compound 10 µM) was 12.9% [middle of 5 runs] and the IC50 (curve of compound) was 746 nM [middle of 5 runs].

With `CC(C)n1nc(-c2ccc3oc(N)nc3c2)c2c(N)ncnc21` the viability, T/C (compound 0.000316 µM) was 95.7% [middle of 5 runs], the viability, T/C (compound 0.001 µM) was 98.8% [middle of 5 runs] and the viability, T/C (compound 0.00316 µM) was 77.8% [middle of 5 runs]. The viability, T/C (compound 0.01 µM) was 56.7% [middle of 5 runs], the viability, T/C (compound 0.0316 µM) was 32.1% [middle of 5 runs] and the viability, T/C (compound 0.1 µM) was 19.2% [middle of 5 runs]. The IC50 (curve of compound) was 14.1 nM [middle of 5 runs].

With `CC1(C)CCC(CN2CCN(c3ccc(C(=O)NS(=O)(=O)c4ccc(NCC5CCOCC5)c([N+](=O)[O-])c4)c(Oc4cnc5[nH]ccc5c4)c3)CC2)=C(c2ccc(Cl)cc2)C1` the viability, T/C (compound 0.0316 µM) was 97.6% [middle of 5 runs], the viability, T/C (compound 0.1 µM) was 93.7% [middle of 5 runs] and the viability, T/C (compound 0.316 µM) was 104% [middle of 5 runs]. The viability, T/C (compound 1 µM) was 98.1% [middle of 5 runs], the viability, T/C (compound 3.16 µM) was 22.7% [middle of 5 runs] and the viability, T/C (compound 10 µM) was 4.85% [middle of 5 runs]. For the same compound, the IC50 (curve of compound) was 2.07 µM [middle of 5 runs].

With `CC1COCCN1c1cc(-c2ccnn2C)c2ccnc(-c3ccn[nH]3)c2n1` (stereo not drawn) the viability, T/C (compound 0.0316 µM) was 29.2% [middle of 5 runs], the viability, T/C (compound 0.1 µM) was 7.22% [middle of 5 runs] and the viability, T/C (compound 0.316 µM) was 4.63% [middle of 5 runs]. The viability, T/C (compound 1 µM) was 3.65% [middle of 5 runs] and the viability, T/C (compound 3.16 µM) was 4.09% [middle of 5 runs].

In the case of `CC1OCC2(CCN(c3cnc(Sc4ccnc(N)c4Cl)c(N)n3)CC2)C1N` (stereo not drawn), the viability, T/C (compound 0.0316 µM) is reported as 107% and 92.4% and 90.5%, the viability, T/C (compound 0.1 µM) is reported as 102% [middle of 19 runs] and the IC50 [1] is reported as over 10 µM. The IC50 [2] was 7.4 µM and > 10 µM, the IC50 [3] was over 10 µM and the IC50 (curve of compound) was over 10 µM.

`CCN1CCN(Cc2ccc(Nc3ncc(F)c(-c4cc(F)c5nc(C)n(C(C)C)c5c4)n3)nc2)CC1` was tested, and the viability, T/C (compound 0.00316 µM) was 98.8% [middle of 4 runs], the viability, T/C (compound 0.01 µM) was 98.5% [middle of 4 runs] and the viability, T/C (compound 0.0316 µM) was 107% [middle of 4 runs]. The viability, T/C (compound 0.1 µM) was 112% (2×) and 136% and 113%, the viability, T/C (compound 1 µM) was 101% [middle of 4 runs] and the IC50 (curve of compound) was over 1 µM.
